Results as given in the NIST ThermoML archive (doi:10.1016/j.jct.2014.02.008).

Test: cn = amount concentration of the nth substance listed, in mol/dm3
Details: 298.15 K, 101 kPa, Liquid, Taylor dispersion method

NCCCC[C@H](N)C(=O)O [L-lysine] + O
Details	binary diffusion coefficient [m2/s]
c1 = 0.001	6.66e-10
c1 = 0.005	6.62e-10
c1 = 0.01	6.61e-10
c1 = 0.02	6.59e-10
c1 = 0.03	6.52e-10
c1 = 0.05	6.46e-10
c1 = 0.1	6.26e-10
